Results from ChEMBL document CHEMBL4619821, “Bioinspired Hybrid Fluorescent Ligands for the FK1 Domain of FKBP52” (J Med Chem, 2020).
The source made the active and inactive calls. The rule behind the calls is not given here. Square brackets hold non-standard residues; d marks the D form. Peptide text beside a SMILES is read from it. * marks the point of attachment. Pro(trans-4-F) = O=C(O)[C@@H]1C[C@@H](F)CN1; Dansyl = CN(C)c1cccc2c(S(=O)(=O)*)cccc12; Pro(cis-4-F) = O=C(O)[C@@H]1C[C@H](F)CN1; Hyp = O=C(O)[C@@H]1C[C@@H](O)CN1; hPhe = N[C@@H](CCc1ccccc1)C(=O)O; 2Pal = N[C@@H](Cc1ccccn1)C(=O)O; 3Pal = N[C@@H](Cc1cccnc1)C(=O)O; 4Pal = N[C@@H](Cc1ccncc1)C(=O)O; Tic = O=C(O)[C@@H]1Cc2ccccc2CN1; Tle = CC(C)(C)[C@H](N)C(=O)O; Pip = O=C(O)[C@@H]1CCCCN1; Ac5c = NC1(C(=O)O)CCCC1

Legend:
[1] = target: T1, Peptidyl-prolyl cis-trans isomerase FKBP4 (Homo sapiens, UniProt Q02790); test: Binding affinity to FKBP52 FK1 domain (1 to 148 residues) (unknown origin) by isothermal calorimetric analysis
T1 sequence (Q02790 whole entry): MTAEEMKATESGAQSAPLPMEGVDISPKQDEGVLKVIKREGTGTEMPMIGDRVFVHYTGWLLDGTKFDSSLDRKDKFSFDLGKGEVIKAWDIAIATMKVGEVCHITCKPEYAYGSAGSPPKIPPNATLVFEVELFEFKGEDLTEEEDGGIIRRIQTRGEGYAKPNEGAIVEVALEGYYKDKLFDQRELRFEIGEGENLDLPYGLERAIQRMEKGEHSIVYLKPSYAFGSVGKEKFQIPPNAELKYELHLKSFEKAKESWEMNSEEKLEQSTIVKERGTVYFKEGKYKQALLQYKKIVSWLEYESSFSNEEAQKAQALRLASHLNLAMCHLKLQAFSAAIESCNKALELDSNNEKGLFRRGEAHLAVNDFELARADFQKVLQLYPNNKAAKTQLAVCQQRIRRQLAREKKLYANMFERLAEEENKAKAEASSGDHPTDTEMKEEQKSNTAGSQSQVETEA

[2] = target: T1, Peptidyl-prolyl cis-trans isomerase FKBP4; test: (§1) Binding affinity to FKBP52 FK1 domain (1 to 148 residues) (unknown origin) by Dansyl fluorescence based assay
[3] = target: T2, Peptidyl-prolyl cis-trans isomerase FKBP4 (Homo sapiens) (UniProt Q02790); test: as §1
T2 sequence (whole entry): T1 sequence (Q02790 whole entry)

[4] = Solubility of the compound; format: physicochemical
[5] = target: T2, Peptidyl-prolyl cis-trans isomerase FKBP4 (Homo sapiens); test: Binding affinity to FKBP52 FK1 domain (1 to 148 residues) (unknown origin) at 10 uM by Dansyl fluorescence based assay
[6] = target: T2, Peptidyl-prolyl cis-trans isomerase FKBP4 (Homo sapiens); test: Binding affinity to FKBP52 FK1 domain (1 to 148 residues) (unknown origin) assessed as increase in fluorescence at 10 uM by Dansyl fluorescence based assay relative to control
[7] = target: T2, Peptidyl-prolyl cis-trans isomerase FKBP4 (Homo sapiens); test: Binding affinity to FKBP52 FK2 domain (167 to 253 residues) (unknown origin) in PBS at 10 uM by Dansyl fluorescence based assay relative to control
[8] = target: T2, Peptidyl-prolyl cis-trans isomerase FKBP4 (Homo sapiens); test: Binding affinity to FKBP52 FK1 domain (1 to 148 residues) (unknown origin) in PBS at 20 uM in presence of one equivalent FK506 by FRET assay
[9] = target: T2, Peptidyl-prolyl cis-trans isomerase FKBP4 (Homo sapiens); test: Binding affinity to FKBP52 FK1 domain (1 to 148 residues) (unknown origin) in PBS assessed as induction of blue shift by measuring emission wavelength at 10 to 20 uM by fluorimetric analysis (reference value: 560 nm)
[10] = target: T2, Peptidyl-prolyl cis-trans isomerase FKBP4 (Homo sapiens); test: Binding affinity to FKBP52 FK1 domain (1 to 148 residues) (unknown origin) assessed as blue shift at 10 uM by Dansyl fluorescence based assay
[11] = target: T1, Peptidyl-prolyl cis-trans isomerase FKBP4; test: Binding affinity to FKBP52 FK1 domain (1 to 148 residues) (unknown origin) in PBS by fluorescence spectroscopy
[12] = target: T2, Peptidyl-prolyl cis-trans isomerase FKBP4 (Homo sapiens); test: Binding affinity to FKBP52 FK1 domain (1 to 148 residues) (unknown origin) in PBS assessed as quenching of Trp emission at 10 to 20 uM by fluorimetric analysis
[13] = target: T2, Peptidyl-prolyl cis-trans isomerase FKBP4 (Homo sapiens); test: Binding affinity to FKBP52 FK1 domain (1 to 148 residues) (unknown origin) at 10 uM in presence of FK506 by Dansyl fluorescence based assay

Kd [1] [µM]	other results	Structure (SMILES)
3.5	–	CN(C)c1cccc2c(S(=O)(=O)N3CCCC[C@H]3C(=O)N[C@@H](Cc3ccccn3)C(=O)N[C@@H](CCCNC(=N)N)C(=O)O)cccc12 (Dansyl-[Pip]-[2Pal]-Arg-OH)
> 50	–	CN(C)c1cccc2c(S(=O)(=O)N3C[C@H](O)C[C@H]3C(=O)N[C@@H](CCc3ccccc3)C(=O)N[C@@H](CCCNC(=N)N)C(=O)O)cccc12 (Dansyl-[Hyp]-[hPhe]-Arg-OH)
20	–	CN(C)c1cccc2c(S(=O)(=O)N3C[C@H](F)C[C@H]3C(=O)N[C@@H](CCc3ccccc3)C(=O)N[C@@H](CCCNC(=N)N)C(=O)O)cccc12 (Dansyl-[Pro(trans-4-F)]-[hPhe]-Arg-OH)
5.8	–	CN(C)c1cccc2c(S(=O)(=O)N3CCCC[C@H]3C(=O)N[C@@H](Cc3ccccc3)C(=O)N[C@@H](CCCNC(=N)N)C(=O)O)cccc12 (Dansyl-[Pip]-Phe-Arg-OH)
5	–	CN(C)c1cccc2c(S(=O)(=O)N3CCC[C@H]3C(=O)N[C@@H](CCc3ccccc3)C(=O)N[C@@H](CCCNC(=N)N)C(=O)O)cccc12
–	Kd [2]: > 50 µM	CN(C)c1cccc2c(S(=O)(=O)N3[C@H](C(=O)N[C@@H](CCc4ccccc4)C(=O)N[C@@H](CCCNC(=N)N)C(=O)O)CCC3(C)C)cccc12
> 50	–	CN(C)c1cccc2c(S(=O)(=O)N3CCC[C@@H]3C(=O)N[C@@H](CCc3ccccc3)C(=O)N[C@@H](CCCNC(=N)N)C(=O)O)cccc12
2.9	–	CN(C)c1cccc2c(S(=O)(=O)N3CCCC[C@H]3C(=O)N[C@H](C(=O)N[C@@H](CCCNC(=N)N)C(=O)O)C(C)(C)C)cccc12 (Dansyl-[Pip]-[Tle]-Arg-OH)
> 50	–	CCCCN(CC(=O)N[C@@H](CCc1ccccc1)C(=O)N[C@@H](CCCNC(=N)N)C(=O)O)S(=O)(=O)c1cccc2c(N(C)C)cccc12
3	–	CN(C)c1cccc2c(S(=O)(=O)N3CCCC[C@H]3C(=O)N[C@@H](Cc3cccnc3)C(=O)N[C@@H](CCCNC(=N)N)C(=O)O)cccc12 (Dansyl-[Pip]-[3Pal]-Arg-OH)
–	Activity [3]: inactive	CN(C)c1cccc2c(S(=O)(=O)N3CCC[C@H]3C(N)=O)cccc12
> 50	–	CN(C)c1cccc2c(S(=O)(=O)N3CCCC[C@H]3C(=O)N[C@@H](Cc3ccncc3)C(=O)N[C@@H](CCCNC(=N)N)C(=O)O)cccc12 (Dansyl-[Pip]-[4Pal]-Arg-OH)
1.1	–	CN(C)c1cccc2c(S(=O)(=O)N3CCCC[C@H]3C(=O)N3CCCC[C@H]3C(=O)N[C@@H](CCCNC(=N)N)C(=O)O)cccc12 (Dansyl-[Pip]-[Pip]-Arg-OH)
–	Kd [2]: > 50 µM	CN(C)c1cccc2c(S(=O)(=O)N3Cc4ccccc4C[C@H]3C(=O)N[C@@H](CCc3ccccc3)C(=O)N[C@@H](CCCNC(=N)N)C(=O)O)cccc12 (Dansyl-[Tic]-[hPhe]-Arg-OH)
> 50	–	CN(C)c1cccc2c(S(=O)(=O)N3CCCC[C@H]3C(=O)N3Cc4ccccc4C[C@H]3C(=O)N[C@@H](CCCNC(=N)N)C(=O)O)cccc12 (Dansyl-[Pip]-[Tic]-Arg-OH)
–	solubility [4]: Insoluble; Activity [5]: inactive	CN(C)c1cccc2c(S(=O)(=O)N3CCCC[C@H]3C(=O)N[C@@H](CCc3ccccc3)C(=O)O)cccc12.O=C(O)C(F)(F)F (Dansyl-[Pip]-[hPhe]-OH)
–	Kd [2]: 20 µM	CN(C)c1cccc2c(S(=O)(=O)N3CCCC[C@H]3C(=O)N[C@@H](Cc3c[nH]c4ccccc34)C(=O)N[C@@H](CCCNC(=N)N)C(=O)O)cccc12 (Dansyl-[Pip]-Trp-Arg-OH)
1.6	fold change (FC) [6]: 4; Activity [7]: inactive; Activity [8]: inactive; Activity [9]: 537 nm; Activity [10]: 30 nm; Kd [11]: 4.6 µM; Activity [12]: 67%; Activity [13]: inactive	CN(C)c1cccc2c(S(=O)(=O)N3CCCC[C@H]3C(=O)N[C@@H](CCc3ccccc3)C(=O)N[C@@H](CCCNC(=N)N)C(=O)O)cccc12 (Dansyl-[Pip]-[hPhe]-Arg-OH)
1.3	–	CN(C)c1cccc2c(S(=O)(=O)N3C[C@@H](F)C[C@H]3C(=O)N[C@@H](CCc3ccccc3)C(=O)N[C@@H](CCCNC(=N)N)C(=O)O)cccc12 (Dansyl-[Pro(cis-4-F)]-[hPhe]-Arg-OH)
10	–	CN(C)c1cccc2c(S(=O)(=O)N3CCCC[C@H]3C(=O)NC3(C(=O)N[C@@H](CCCNC(=N)N)C(=O)O)CCCC3)cccc12 (Dansyl-[Pip]-[Ac5c]-Arg-OH)
